Results as given in patent publication US20140220108A1, “COCHLEATE COMPOSITIONS AND METHODS OF MAKING AND USING SAME” (priority 2011, published 2014).
Values after ≈ are worked out from the molar mass of the structure shown. Where two headings read alike, the source gives them in different places.

What was measured:
M. avium 101 [1] = assay: M. avium 101-infected mouse peritoneal macrophages (Raw 264.7), intracellular bacteria after 4 days of treatment; assay type: cell-based, Mycobacterium avium
Experimental: (§1) Amikacin cochleate (Amkcch) formulations were optimized for amikacin encochleation efficiency and particle size by varying the type of PS used, the PS:drug ratio, PS:Ca ratio, and NaCl concentration. The efficacy of Amkcch against intracellular Ma infections was evaluated in vitro using mouse peritoneal macrophage infected with M. avium strains MAC 101 or MAC 109. Mouse peritoneal macrophages (Mo) Raw 264.7 cells were seeded at 10^5 cells/well. Mo monolayers were infected at ratio 1:10 for 1 h and extracellular bacteria removed. Monolayers were treated with free amikacin and/or cochleate preparations for 4 days and the number of intracellular bacteria determined. Assays were repeated three times.
as §1, with “The” for “Amikacin cochleate (Amkcch) formulations were optimized for amikacin encochleation efficiency and particle size by varying the type of PS used, the PS:drug ratio, PS:Ca ratio, and NaCl concentration. The”, “Amkcch against,” for “Amkcch against”, “1 hour” for “1 h”
The cochleate preparations used to evaluate biological activity against Mycobacterium avium in vitro included: 1. 2.0 ml/vial of 0 M NaCl amikacin formulation with 0.5 mg/ml; 2. 2.0 ml/vial of 0.066M NaCl amikacin formulation with 0.5 mg/ml; 3. 2.0 ml/vial of 0.33M NaCl amikacin formulation with 0.5 mg/ml; 4. 2.0 ml/vial of 0.66M NaCl amikacin formulation with 0.5 mg/ml; 5. 2.0 ml/vial of 0 M NaCl placebo formulation with 5 mg PS/ml; 6. 2.0 ml/vial of placebo formulation plus amikacin with 0.5 mg/ml; and 7. 2.0 ml/vial of free amikacin in water with 0.5 mg/ml.

M. avium 109 = assay: M. avium 109-infected mouse peritoneal macrophages (Raw 264.7), intracellular bacteria after 4 days of treatment; assay type: cell-based, Mycobacterium avium; conditions: inoculum 2.4 ± 0.3 × 10^5, untreated 3.1 ± 0.6 × 10^6
Experimental: as §1
as §1, with “The” for “Amikacin cochleate (Amkcch) formulations were optimized for amikacin encochleation efficiency and particle size by varying the type of PS used, the PS:drug ratio, PS:Ca ratio, and NaCl concentration. The”, “Amkcch against,” for “Amkcch against”, “1 hour” for “1 h”
The cochleate preparations used to evaluate biological activity against Mycobacterium avium in vitro included: 1. 2.0 ml/vial of 0 M NaCl amikacin formulation with 0.5 mg/ml; 2. […]

M. avium 101 [2] = assay: Splenic bacterial counts in M. avium 101-infected C57BL/6 mice; assay type: in vivo, Mycobacterium avium; conditions: 1 mg amikacin/mouse/day, 2 weeks, 3 weeks infected control 7.8 ± 0.4 × 10^7
F. tularensis LVS = assay type: cell-based, Francisella tularensis; conditions: no treatment 3.0 ± 0.3 × 10^6
M. avium = conditions: cited from earlier work
[3] = Encochleation efficiency by lipid composition, drug in supernatant after centrifugation; assay type: physicochemical; conditions: independent of the lipid composition of the PS vesicles
Experimental: For example, incorporation of phosphatidylserine (PS) combined with 99.9% pure dioleoyl PS, 99.9% pure soy PS, 75% soy PS and 50% soy PS, were used to manufacture cochleates. The lipid composition of 99.9% pure PS was modified by the addition of sphingomyelin, phosphatidylcholine and/or cholesterol. Encochleation efficiency was determined by assaying the concentration of drug in the supernatant following centrifugation.

MAC184 strain = assay: MIC against clarithromycin-resistant clinical isolate MAC184; parameters: species or system M. avium; conditions: Mycobacterium avium
MAC 101 = assay: MIC against susceptible M. avium strain MAC 101; conditions: Mycobacterium avium, such as MAC 101

Compound: NCC[C@H](O)C(=O)N[C@@H]1C[C@H](N)[C@@H](O[C@H]2O[C@H](CN)[C@@H](O)[C@H](O)[C@H]2O)[C@H](O)[C@H]1O[C@H]1O[C@H](CO)[C@@H](O)[C@H](N)[C@H]1O [Free amikacin, amikacin]
- # bacteria day 4 (M. avium 101 [1]; 20 μg/l, inoculum 3.8 ± 0.4 × 10^5, untreated 4.9 ± 0.5 × 10^6): 3.8 ± 0.5 × 10^4
- # bacteria day 4 (M. avium 101 [1]; inoculum 3.8 ± 0.4 × 10^5, untreated 4.9 ± 0.5 × 10^6): 4.9 ± 0.3 × 10^4
- # bacteria day 4 (M. avium 109; 10 μg/l): 5.0 ± 0.3 × 10^4
- # bacteria day 4 (M. avium 109; 20 μg/l): 2.9 ± 0.4 × 10^4
- CFU/spleen (M. avium 101 [2]; I.P.): 9.3 ± 0.4 × 10^6 CFU/spleen
- CFU/spleen (M. avium 101 [2]; oral): 6.9 ± 0.3 × 10^7 CFU/spleen
- intracellular bacteria Day 4 (F. tularensis LVS; amikacin 4 μg/ml): 7.6 ± 0.3 × 10^2 CFU/ml
- frequency of resistance (M. avium): 10^−11

Compound: C[C@@H]1[C@H](O)[C@@H](C)/C=C/C=C/C=C/C=C/C=C/C=C/C=C/[C@H](O[C@@H]2O[C@H](C)[C@@H](O)[C@H](N)[C@@H]2O)C[C@@H]2O[C@](O)(C[C@@H](O)C[C@@H](O)[C@H](O)CC[C@@H](O)C[C@@H](O)CC(=O)O[C@H]1C)C[C@H](O)[C@H]2C(=O)O [AmB, Amphotericin B]
- encochleation efficiency [3]: greater than 85%

Compound: CC[C@@H](CO)NCCN[C@@H](CC)CO [ethambutol]
- MIC (MAC184 strain): 8 µg/mL (≈ 39.2 µM)
- MIC (MAC 101): 4 µg/mL (≈ 19.6 µM)

Compound: gentamicin [Free gentamicin]
- # bacteria day 4 (M. avium 101 [1]; gentamicin 30 μg/ml (30 μg/l in two rows), untreated 6.4 ± 0.5 × 10^6): 1.9 ± 0.3 × 10^5
- intracellular bacteria Day 4 (F. tularensis LVS; gentamicin 2 μg/ml): 9.3 ± 0.3 × 10^2 CFU/ml
